The values below come from paper PMC9785606, “Design and Synthesis of Novel Phenylahistin Derivatives Based on Co-Crystal Structures as Potent Microtubule Inhibitors for Anti-Cancer Therapy” (Marine Drugs, 2022).

One data set relates to caspase-3. The data set can be described thus: Western blotting of caspase-3 expression. Type of data set: cell-based. Here is the method:
Western blot was performed as previously described with antibody caspase-3 (1:1000) (WB0177/WB0176) or GAPDH (1:3000) (WB0197/WB0196, Shanghai Wei-Ao Biotechnology Co., Shanghai, China). Densities of the Western blotting bands were quantified using ImageJ 19.0. (NIH, Bethesda, MD, USA).

A short description of data set [1]: Stability of liver microsomal metabolism. Type of data set: in vitro ADME, rat. The conditions noted are these: 37 °C. On the procedure: The total volume of the incubation system is 1 mL, which contains 1 mmol/L NADPH, 0.5 mg/mL rat liver microsomes, 1 μmol/L 15p standard solution, which was supplemented with K2HPO4 buffer to 1 mL. The solution should be added to the incubation system. The incubation system was rapidly incubated in a water bath shaker at 37 °C for 5 min before adding 200 μL of 5 mmol/L NADPH. The 50 μL of the incubation system was quickly removed at 0, 5, 10, 20, 40, 60, 90, 120, 150, 210, and 270 min. The concentrations of the samples to be measured (15p) in rat liver microsomes were measured by HPLC-MS/MS. Each sample was operated on three times in parallel. The experimental data were processed and plotted using the computer programs Microsoft Excel (97–2003) and Origin 7.5 software.

The subject of data set [2] is colon cancer HT-29 cell line. The data set can be described thus: MTT cytotoxicity assay, colon cancer HT-29 cell line. To be noted: Homo sapiens, 72 h, mean ± SD. The data set is classed as cell-based. Here is the method: (§1) Human cancer cell lines (lung cancer NCI-H460 cell line, pancreatic cancer BxPC-3 cell line, colon cancer HT-29 cell line) were purchased from American Type Cell Culture Collection (ATCC, Manassas, VA, USA). Cells were maintained in RPMI-1640 medium supplemented with 10% (v/v) heat-inactivated fetal bovine serum, penicillin-streptomycin (100 U/mL-100 […]) at 37 °C in a humidified atmosphere (5% CO2–95% air). All tested derivatives were dissolved in 100% cell culture grade DMSO. Cells (3 × 10^3 per well) were seeded in 96-well plates for 24 h. Then, cells were treated with the tested compounds in six concentrations for 72 h. Cell viability was assessed by MTT assay. The absorbance at 490 nm was measured with a Microplate Reader (Molecular Devices, Silicon Valley, CA, USA). The data were analyzed by Origin 8.5 (OriginLab, Northampton, MA, USA).

Data set [3] relates to microtubules in NCI-H460 cells. The data set can be described thus: Immunofluorescence assay of microtubules (β-tubulin/DAPI staining). The data set is classed as cell-based, human. To be noted: 2 nM, 24 h. Here is the method: To further explore the effect of phenylahistin derivatives 1 and 15p on microtubules in cancer cells, an immunofluorescence assay was performed. […] The inhibitory activities were consistent with the previously shown anti-proliferative activities.
NCI-H460 cells were seeded in 24-well plate (with coverslips plated) at the density of 5 × 10^4 cells. […] Then, cells were fixed with 4% cold paraformaldehyde at 4 °C for 15 min and then permeabilized in 0.05% Triton X-100 for 10 min. The cells were blocked in 1% BSA for 30 min. Microtubules were detected by incubation with a monoclonal anti-β-tubulin (β-tubulin antibody was obtained from Servicebio, Wuhan, China.) at 4 °C for 12 h. Subsequently, the cells were washed with PBS and incubated with a FITC-conjugated anti-mouse IgG antibody. Nuclei were stained with DAPI (G1012, Servicebio, Wuhan, China). The coverslips were visualized under fluorescence microscope (Nikon Eclipse C1, Nikon, Japan) and an image-forming system (Nikon DS-U3, Nikon, Tokyo, Japan).

For data set [4], the system named is human lung cancer NCI-H460 cell line. The data set can be described thus: MTT cytotoxicity assay, lung cancer NCI-H460 cell line. The data set is classed as cell-based. The conditions noted are these: Homo sapiens, NCI-H460, 72 h, mean ± SD. On the procedure: as §1
Data set [5] is described as follows: Plasma stability in vitro. To be noted: 10 μmol/L, 37 °C, up to 120 min. The data set is classed as in vitro ADME, wistar rats. On the procedure: Compounds 15p. 15p were weighed and dissolved in DMSO to prepare a master batch with a concentration of 1 mg/mL. The plasma was obtained from wistar male rats, and stored at −20 °C for pending use. The 10 μmol/L of the sample solution to be tested was vortexed and mixed, and rapidly incubated in a 37 °C water bath shaker. The 100 μL of the incubation system was removed at 0 min, 5 min, 10 min, 20 min, 40 min, 60 min, 90 min, and 120 min of the reaction, respectively. The remaining amount of compound was detected (note: each sample was operated three times in parallel). The concentrations of the samples to be measured (15p) in rat plasma were detected by HPLC-MS/MS, and the experimental data were processed and plotted using the computer programs Microsoft Excel (Microsoft 97–2003, Redmond, Washington, DC, USA) and Origin 8.5 (OriginLab, Northampton, MA, USA).

The compound `C=CCn1cnc(/C=c2\[nH]c(=O)/c(=C/c3cccc(C(=O)c4ccc(F)cc4)c3)[nH]c2=O)c1C(C)C` [15p] gave a melting point of 200 to 202 °C. For the same compound, the “Expression of caspase-3 vs control group and plinabulin group” value with caspase-3 is reported as “significantly higher”. Moreover, the “Upregulation of caspase-3” value with caspase-3 (10 nM) is reported as “strongest upregulation of caspase-3”. In addition, the “Clearance by liver microsomes” value in data set [1] (NADPH) was “quickly cleared by liver microsomes”. Besides, the Total clearance (CL) at 1 μmol/L in data set [1] (Wistar, rat, rat liver microsomes, rat liver microsomes 0.5 mg/mL, 1 μmol/L) was 80.6 mL/min/kg. In addition, the CLint scaled at 1 μmol/L in data set [1] (Wistar, rat, rat liver microsomes, rat liver microsomes 0.5 mg/mL, 1 μmol/L, read-out: CLint (intrinsic clearance)) worked out at 772 mL/min/kg. In data set [1] (Wistar, rat liver microsomes 0.5 mg/mL, 1 μmol/L), this compound gave a half-life at 1 μmol/L of 7.07 min. In data set [2], this compound returned an IC50 of 0.67 ± 0.064 nM. The “Effect on microtubule networks” value in data set [3] was “microtubule networks were damaged”. Further, the IC50 in data set [4] turned out to be 1.03 ± 0.18 nM. For the same compound, the Plasma stability result in data set [5] was “very stable”.
